Measurements taken from ChEMBL document CHEMBL1133152, “Design and synthesis of mimics of S-adenosyl-L-homocysteine as potential inhibitors of erythromycin methyltransferases” (Bioorg Med Chem Lett, 2000).
pKi: −log10 of the molar value.

Tests used:
[1] = target: T1, rRNA adenine N-6-methyltransferase (Streptococcus pneumoniae, UniProt P21236); experiment: Inhibition of ErmAM methylase
T1 sequence (P21236 whole entry): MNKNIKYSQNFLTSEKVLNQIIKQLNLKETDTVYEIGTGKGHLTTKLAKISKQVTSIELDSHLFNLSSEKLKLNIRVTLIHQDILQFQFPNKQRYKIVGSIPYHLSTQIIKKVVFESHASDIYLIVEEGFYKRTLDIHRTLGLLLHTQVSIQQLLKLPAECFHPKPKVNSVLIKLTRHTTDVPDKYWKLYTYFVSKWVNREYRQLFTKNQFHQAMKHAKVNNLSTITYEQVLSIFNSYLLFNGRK

[2] = The compound was tested for its ability to inhibit ErmC methylase at 100 uM
[3] = The compound was tested for its ability to inhibit ErmC methylase
[4] = The compound was tested for its ability to inhibit ErmAM methylase at 100 uM
[5] = The compound was tested for its ability to inhibit ErmC methylase; Range 50-100
[6] = The compound was tested for its binding ability to inhibit ErmAM methylase

| SMILES | pKi [1] | inhibition [2] [%] | pKi [3] | inhibition [4] [%] | pKi [5] | pKi [6] |
| --- | --- | --- | --- | --- | --- | --- |
| Cc1ccc(COC[C@H]2O[C@@H](Cc3nc(N)nc(NC4Cc5ccccc5C4)n3)[C@H](O)[C@@H]2O)cc1 | < 4.00 | 0 | < 4.00 | 15 |  |  |
| Nc1nc(C[C@@H]2O[C@H](COCc3ccc(Br)cc3)[C@@H](O)[C@H]2O)nc(NC2Cc3ccccc3C2)n1 | ~4.12 |  | ~4.40 |  |  |  |
| Nc1nc(CC2O[C@H](COCc3ccccc3)[C@@H](O)[C@H]2O)nc(NC2Cc3ccccc3C2)n1 (stereo not given in full) | < 4.00 | 5.5 |  | 16.9 |  |  |
| Nc1nc(CC2O[C@H](CSCCc3ccccc3)[C@@H](O)[C@H]2O)nc(NC2Cc3ccccc3C2)n1 (stereo not given in full) | < 4.00 | 39.9 |  | 18 | 4.00 |  |
| Nc1nc(NC2Cc3ccccc3C2)cc(-c2ccc(NCCCc3ccccc3O)cc2)n1 |  |  |  |  |  | 5.00 |
| Nc1nc(CC[C@@H]2O[C@H](COCc3ccc(Br)cc3)[C@@H](O)[C@H]2O)nc(NC2Cc3ccccc3C2)n1 | ~4.30 | 37.5 |  | 55 | 4.00 |  |
| Nc1nc(CC2O[C@H](CSc3ccccc3)[C@@H](O)[C@H]2O)nc(NC2Cc3ccccc3C2)n1 (stereo not given in full) | < 4.00 | 28 | < 4.00 | 3.4 |  |  |
| Nc1nc(CC2O[C@H](CSCc3ccccc3)[C@@H](O)[C@H]2O)nc(NC2Cc3ccccc3C2)n1 (stereo not given in full) | < 4.00 | 10 | < 4.00 | 10 |  |  |
| Nc1nc(NC2Cc3ccccc3C2)nc([C@H]2C[C@@H](O)[C@H](O)[C@H](OCc3ccccc3)C2)n1 | < 4.00 | 17.7 | < 4.00 | 9.9 |  |  |
| Nc1nc(NC2Cc3ccccc3C2)nc(N2CCCCC2)n1 |  |  |  |  |  | 5.10 |
| Nc1nc(C[C@@H]2O[C@H](COC/C=C/c3ccccc3)[C@@H](O)[C@H]2O)nc(NC2Cc3ccccc3C2)n1 | ~4.05 |  | ~4.22 |  |  |  |
| Nc1nc(CC2O[C@H](CSCc3ccc(Cl)cc3)[C@@H](O)[C@H]2O)nc(NC2Cc3ccccc3C2)n1 (stereo not given in full) | ~4.26 |  | ~4.10 |  |  |  |
